Earlier results on 1 molecule are cited in patent EP0343306A1, “Liquid pharmaceutical preparation based on theophylline with a retarding effect, and process for producing it” (CARULLA VEKAR, S.A., priority 1988, dated 1989).

The conditions of the data set: in vivo.

In the case of `Cn1c(=O)c2[nH]cnc2n(C)c1=O` [theophylline], the “plasmatic levels associated with a significant incidence of side effects” value is “above 20 mcg/ml”.
